Reference: US12686664B2, “SOCE inhibitors and therapeutic uses thereof” (Institut National de la Santé et de la Recherche Médicale …, priority 2020, dated 2026)
Where a name gives a salt, the structure may show the parent alone. Read-outs that look alike come from different tables or passages of the source. Marks after values point to notes of the source that are not given here.

Tested on: store-operated Ca^2+ entry in PLP-B lymphocytes
Assay: Store-operated Ca2+ entry after thapsigargin depletion of ER Ca2+ stores in PLP-B lymphocytes
Assay type: cell-based
Details: for IC50: SOCE in PLP-B lymphocytes, average of three assays, ±0.5 μM
Method: The effects of the molecules developed were tested on PLP-B lymphocytes. Store-operated Ca^2+ entry was induced by depletion of Endoplasmic Reticulum Ca^2+ stores (ER Ca^2+ stores) with thapsigargin (Tg) in a Ca^2+-free medium and measured following the addition of 1.8 mM of CaCl2) in the extracellular medium. The results are compared to the results obtained for known SOCE inhibitors SKF-96365, GSK-7975A, Synta 66.

[1] = Lymphocyte, 10 μM, PLP-B lymphocytes, % of inhibition (−) or activation, DMSO control 100%, read-out: Effect on amplitude of SOCE Peak
[2] = Lymphocyte, 10 μM, thapsigargin (Tg) peak, PLP-B lymphocytes, % of inhibition (−) or activation, read-out: Effect on amplitude of Tg Peak
[3] = Lymphocyte, 50 μM, PLP-B lymphocytes, % of inhibition (−) or activation, DMSO control 100%, read-out: Effect on amplitude of SOCE Peak
[4] = Lymphocyte, 50 μM, thapsigargin (Tg) peak, PLP-B lymphocytes, % of inhibition (−) or activation, read-out: Effect on amplitude of Tg Peak
[5] = Lymphocyte, 100 μM, PLP-B lymphocytes, % of inhibition (−) or activation, DMSO control 100%, read-out: Effect on amplitude of SOCE Peak
[6] = Lymphocyte, 100 μM, thapsigargin (Tg) peak, PLP-B lymphocytes, % of inhibition (−) or activation, read-out: Effect on amplitude of Tg Peak
[7] = Lymphocyte, PLP-B lymphocytes, % of inhibition (−) or activation, DMSO control 100%, read-out: Effect on amplitude of SOCE Peak
[8] = Lymphocyte, 1 μM, PLP-B lymphocytes, % of inhibition (−) or activation, DMSO control 100%, read-out: Effect on amplitude of SOCE Peak
[9] = Lymphocyte, thapsigargin (Tg) peak, PLP-B lymphocytes, % of inhibition (−) or activation, read-out: Effect on amplitude of Tg Peak
[10] = Lymphocyte, 1 μM, thapsigargin (Tg) peak, PLP-B lymphocytes, % of inhibition (−) or activation, read-out: Effect on amplitude of Tg Peak

Structure (SMILES)	inhibition at 10 µM [1] [%]	inhibition at 10 µM [2] [%]	inhibition at 50 µM [3] [%]	inhibition at 50 µM [4] [%]	inhibition at 100 µM [5] [%]	inhibition at 100 µM [6] [%]	further results
COc1ccc(CCCOc2cccc(CCn3ccc(C(F)(F)F)n3)c2)cc1 [6βy DAD 3.531]	13	17	34	23	64	30	–
c1ccc2c(c1)cnn2CCc1ccc(OC2CCCCO2)cc1 (stereo not shown) [11αe, 1-(4-((Tetrahydro-2H-pyran-2-yl)oxy)phenethyl)-1H-indazole]	33	8	54	9	88	20	inhibition at 0.1 µM [7]: 23%; inhibition at 1 µM [8]: 20%; IC50 (Lymphocyte): 40 µM
COc1ccc(CCCOc2ccc(CCn3cccn3)cc2)cc1 [Compound 6βp]	–	–	–	–	–	–	inhibition at 1 µM [8]: -16%; IC50 (Lymphocyte): 25 µM
Oc1ccc(CCn2cnc3cc(F)ccc32)cc1 [12αd, 5-Fluoro-1-(4-hydroxyphenylethyl)-1H-benzo[d]imidazol hydrochloride]	-2.7	-6	-3	-4.2	6.4	-4.6	–
FC(F)(F)c1cc(C(F)(F)F)n(CCc2ccccc2OCCc2ccccc2)n1 [6βaa DAD 3.535]	18	8	20	4	29	11	–
Oc1ccc(CCOc2ccc(CCn3cnc4ccccc43)cc2)cc1 [12αb, 1-(4-(4-Hydroxyphenethoxy)phenethyl)-1H-benzo[d]imidazol hydrochloride]	-25	-7	-1	-4	3	–	percent change in peak amplitude vs DMSO control (negative = inhibition, positive = activation) at 100 µM [6]: 0%
COc1ccc(COc2ccc(CCn3nc(C(F)(F)F)cc3C(F)(F)F)cc2)cc1 [6βu DAD 2.334]	2	–	-0.2	–	-0.4	–	–
CS(=O)(=O)Oc1ccc(Cn2nc(C(F)(F)F)cc2C(F)(F)F)cc1 [8βc]	12	-4	22	2	31	21	–
FC(F)(F)c1ncn(CCc2ccc(OCCCc3ccccc3)cc2)n1 [6βi DAD 3.475]	–	–	13	6	43	7	–
COc1ccc(CCOc2ccc(CCn3c(C(F)(F)F)nc4cc(N)ccc43)cc2)cc1 [6αm VAL 1-77]	-4	1	12	1	55	11	–
COc1ccc(COc2ccc(CCn3c(C(F)(F)F)nc4cc(N)ccc43)cc2)cc1 [6αt VAL 1-76]	3	-1	10	-6	34	22	–
Oc1ccc(Cn2cnc3cc(F)ccc32)cc1 [9αe]	-6	3	5	8	21	15	–
c1ccc2c(c1)ncn2CCc1ccc(OCCc2ccc(OC3CCCCO3)cc2)cc1 (stereo not shown) [11αb, 1-(4-(4-((Tetrahydro-2H-pyran-2-yl)oxy)phenethoxy)phenethyl)-1H-benzo[d]imidazole]	29	-2	51	2	–	–	inhibition at 0.1 µM [7]: -28%; inhibition at 0.1 µM [9]: -11%; inhibition at 1 µM [8]: -41%; percent change in peak amplitude vs DMSO control (negative = inhibition, positive = activation) at 1 µM [10]: 0%; inhibition at 5 µM [7]: -16%; inhibition at 5 µM [9]: 2%; IC50 (Lymphocyte): 6.8 µM
c1ccc(CCCOc2ccc(CCn3ncc4ccccc43)cc2)cc1 [6αab DAD 4-575]	-20.8	8.9	2.9	20.7	43.6	24.2	–
c1ccc(OCCCOc2ccc(CCn3cnc4ccccc43)cc2)cc1 [6αs DAD 4-570]	9.4	10.6	19	-0.7	56.9	4.1	–
COc1ccc(CCOc2ccccc2CCn2cnc3ccccc32)cc1 [6αo DAD 4-551]	–	–	33	4	82	-8	–
COc1ccc(CCOc2ccccc2CCn2nc(C(F)(F)F)cc2C(F)(F)F)cc1 [6βz DAD 3.536]	30	9	37	12	40	8	–
COc1ccc(CCCOc2ccc(CCn3cnc4ccccc43)cc2)cc1 [6αn DAD 3-474]	-16	5	-4	-5	25	3	inhibition at 1 µM [8]: -1%; inhibition at 1 µM [10]: 11%
c1ncn(CCc2ccc(OC3CCCCO3)cc2)n1 (stereo not shown) [11βa, 1-(4-((Tetrahydro-2H-pyran-2-yl)oxy)phenethyl)-1H-1,2,4-triazole]	32	20	31	17	16	3	–
COc1ccc(CCOc2ccc(CCn3c(C(F)(F)F)nc4ccccc43)cc2)cc1 [6αc DAD 4-546, 1-(4-(4-Methoxyphenethoxy)phenethyl)-2-trifluoromethyl-1H-benzo[d]imidazole]	–	–	30	18	26	18	–
c1ccc(CCCOc2ccc(CCn3cnc4ccccc43)cc2)cc1 [6αm DAD 3-475]	–	–	4	-7	77	-7	–
COc1ccc(COc2ccc(CCn3cccn3)cc2)cc1 [6βm DAD 2.306]	-2	–	-0.5	–	-16.8	–	–
COc1ccc(OC)c(-c2ccc(NC(=O)c3ccncc3F)cc2)c1 [Synta 66, reference compound]	–	–	–	–	–	–	Effect on amplitude of SOCE peak (1 μM, PLP-B lymphocytes, % of inhibition (−) or activation, DMSO control 100%): 9.0%; Effect on amplitude of SOCE peak (10 μM, PLP-B lymphocytes, % of inhibition (−) or activation, DMSO control 100%): 6.0%; Effect on amplitude of SOCE peak (50 μM, PLP-B lymphocytes, % of inhibition (−) or activation, DMSO control 100%): −74.0%; Effect on amplitude of SOCE peak (100 μM, PLP-B lymphocytes, % of inhibition (−) or activation, DMSO control 100%): −89.0%; IC50: 8.8 µM
COc1ccccc1CCOc1ccc(CCn2cnc3ccccc32)cc1 [6αac DAD 4-566]	31.1	-9.6	87.2	-9	84.3	-13.2	inhibition at 0.1 µM [7]: -12.9%; inhibition at 0.1 µM [9]: -2.3%; inhibition at 1 µM [8]: -6.2%; inhibition at 1 µM [10]: 1.1%; IC50 (Lymphocyte): 13.5 µM
CS(=O)(=O)Oc1ccc(Cn2cncn2)cc1 [8βb, 4-((1H-1,2,4-Triazol-1-yl)methyl)phenyl methanesulfonate]	27	3	41	-2	35	6	inhibition at 0.1 µM [7]: 19%; inhibition at 0.1 µM [9]: 23%; inhibition at 1 µM [8]: 23%; inhibition at 1 µM [10]: 9%
COc1ccc(CCCOc2ccc(CCn3cncn3)cc2)cc1 [6βe DAD 3.470]	–	–	–	–	–	31	Effect on amplitude of SOCE peak (50 μM, PLP-B lymphocytes, % of inhibition (−) or activation, DMSO control 100%, listed as 6βe): −6.0%; Effect on amplitude of Tg Peak (50 μM, thapsigargin (Tg) peak, PLP-B lymphocytes, % of inhibition (−) or activation, listed as 6βe): −31.0# %; Effect on amplitude of SOCE peak (100 μM, PLP-B lymphocytes, % of inhibition (−) or activation, DMSO control 100%, listed as 6βe): −21.0# %
